Assay results as given in patent US20110218170A1, “USE OF 2'-DEOXY-4'-THIOCYTIDINE AND ITS ANALOGUES AS DNA HYPOMETHYLATING ANTICANCER AGENTS” (Southern Research Institute, priority 2010, published 2011).
Where two headings read alike, the source gives them in different places.

Legend:
[1] = tested on: tumors; assay: Anti-tumor activity of 5-aza-T-dCyd in in vivo tumor model (FIG. 6); conditions: mice, q1dx9; tumor size decreased several days after end of dosing
Procedure: (§1) Preliminary in vivo evaluation of the anti-tumor activity of T-dCyd and 5-aza-T-dCyd in mice was also conducted (FIG. 5 and FIG. 6). T-dCyd was tested against human lung NCI-H23 (FIG. 5), and also in DLD-1 colon tumor xenografts (not shown). […] However the 9-day treatment schedule is a classical schedule for a cytotoxic anticancer agent. T-dCyd as a potential DNA hypomethylating agent has not been evaluated in tumor models.
Again, the schedule in this experiment (q1dx9) was also not designed based on the supposed mechanism of action of this agent, but was designed based on a classical cytotoxic nucleoside analog, as in the case of T-dCyd. […] This type of compound might best be used in combination with other chemotherapy as a maintenance therapy. Thus, in the clinic one could envision treatment first with cytotoxic agents to kill a large percentage of rapidly dividing tumor cells, followed by treatment with non-toxic doses of hypomethylating agents for longer time periods. In a similar vein one could envisage treatment with non-toxic DNA hypomethylating agents in chemoprevention settings.

[2] = tested on: DNMT1; assay: DNMT1 protein levels by western blot in drug-treated KG1a cells; format: cell-based, human
Procedure: Cells were incubated with drugs for the indicated times and analyzed by western blot. (*ns indicates a non-specific band used as a loading control).

[3] = Stability in phosphate buffered saline by reverse phase HPLC (FIG. 4); format: physicochemical; conditions: PBS pH 7.4, 100 μM; for half-life at 100 μM: phosphate buffered saline, samples at 2, 20 and 90 hours
Procedure: One of the primary problems of the currently clinically used DNA hypomethylators 5-aza-dCyd and 5-azacytidine is the rapid degradation of these compounds by ring opening of the 5-azacytosine ring in aqueous solutions. Whether a 4′-thio modification would enhance the stability of 5-azacytosine relative to the 4′-oxonucleoside was tested (FIG. 4). In side-by-side experiments, the compounds were dissolved in PBS (phosphate buffered solution, pH 7.4) at a concentration of 100 μM. A sample was removed from each solution 2, 20, and 90 hours after addition of the drug and the concentrations of 5-aza-T-dCyd or 5-aza-dCyd were determined by reverse phase HPLC.

[4] = tested on: KG1a human myeloid leukemia cells; assay: Incorporation into DNA in KG1a human myeloid leukemia cells (FIG. 3); format: cell-based; conditions: 300 nM, 4 h of incubation
[5] = tested on: CEM leukemia cells; assay: Incorporation of [5-3H]-labelled compound into DNA of CEM leukemia cells (FIG. 2); format: cell-based, human; conditions: 100 nM of [5-3H]-labelled compound
Procedure: (§2) In particular, FIG. 2 refers to an experiment where CEM leukemia cells were incubated with 100 nM of [5-^3H]T-dCyd, [5-^3H]dCyd, [5-^3H]araC or [5-^3H]T-araC and the incorporation of compound into the DNA was determined. […] In contrast much less araC (or T-araC) was incorporated into the DNA. Although araCTP (or T araCTP) are also good substrates for DNA polymerases, they are known to inhibit subsequent DNA chain elongation and thereby inhibit DNA replication. […] The concentration of T-dCyd or araC required to inhibit CEM cell growth by 50% after 72 hours of incubation was 2.2 or 0.006 μM, respectively.

[6] = Maximum tolerated dose (MTD) in mice; conditions: mouse, in vivo
Procedure: as §1

[7] = tested on: human lung NCI-H23; assay: Anti-tumor activity against human lung NCI-H23 tumor xenografts in mice (FIG. 5); format: in vivo
Procedure: as §1

[8] = tested on: CEM cells; assay: Metabolism of dCyd or T-dCyd in CEM cells; format: in vitro ADME, human; conditions: 100 nM, 1 hour
Procedure: The metabolites that were produced in CEM cells treated with either [5-^3H]dCyd or [5-^3H]T-dCyd were also determined (Table 1). Cells were treated with 100 nM of each compound for 1 hour and the medium and cells were extracted to determine the major metabolites that were formed. The medium was analyzed by reverse phase HPLC to measure the parent compound, deaminated product, or [^3H]-water. The acid-soluble extract was analyzed by strong anion exchange HPLC to measure the intracellular concentration of nucleotide metabolites. The radioactivity in the acid-insoluble fraction represents the amount of compound that was incorporated into DNA. […] (Note: Because dCyd was labeled at the 5 position, the [^3H] was removed from the molecule by thymidylate synthase in the process of adding a methyl group to this position. Accordingly, there will be no radioactivity in thymidine nucleotides generated from [5-^3H]dCyd).

[9] = tested on: CEM cell; assay: Inhibition of CEM cell growth; format: cell-based, human; conditions: after 72 hours of incubation, read-out: concentration required to inhibit CEM cell growth by 50%
Procedure: as §2

[10] = similar experiments, FIG. 1B or not shown
[11] = 1.3 mg/kg (MTD0.65), 9 day treatment, NCI-H23 tumors in mice

half-life at 100 μM [3] [h]	SMILES	effect on DNMT1 protein level [2, 10]	incorporation into DNA [4]	incorporation of compound into the DNA [5]	[3H] in DNA [8]	[3H] in parent compound [8]	also measured
293	Nc1ncn([C@H]2C[C@H](O)[C@@H](CO)S2)c(=O)n1 [5-aza-T-dCyd, 5-aza-4′-thio-2′-deoxycytidine]	–	–	–	–	–	tumor growth inhibition [1]: substantially inhibited the growth of the tumors; effect on DNMT1 protein level ([2]; doses as low as 0.1 μM, exposed for 72 or 96 h, FIG. 1E): complete depletion of DNMT1; effect on DNMT1 protein level ([2]; similar exposures for as little as 48 h, FIG. 1C): completely depleted DNMT1; stability in PBS relative to 5-aza-dCyd [3]: 5 fold
67	Nc1ncn([C@H]2C[C@H](O)[C@@H](CO)O2)c(=O)n1 [5-azadCyd, 5-aza-2′-deoxycytidine, reference compound]	depleting DNMT1	only a moderate amount	–	–	–	–
–	Nc1ccn([C@@H]2S[C@H](CO)[C@@H](O)[C@@H]2O)c(=O)n1 [T-araC, 4′-thio-arabinofuranosylcytosine, reference compound]	did not deplete DNMT1	–	much less	–	–	–
–	Nc1ccn([C@H]2C[C@H](O)[C@@H](CO)S2)c(=O)n1 [T-dCyd, 4′-thio-2′-deoxycytidine]	–	rapidly incorporated to very high levels	more T-dCyd was incorporated into the DNA than dCyd	8% of total	90% of total	MTD at 9 day [6]: 2 mg/kg; in vivo anti-tumor activity ([7]; 0.9 mg/kg (MTD0.45) and 0.6 mg/kg (MTD0.3), 9 day treatment schedule): some encouraging in vivo activity; complete cures [7, 11]: 2/6; tumor growth inhibition [7, 11]: substantial growth inhibition; effect on DNMT1 protein level ([2]; 72 h at the 3 μM dose, FIG. 1D): complete depletion of DNMT1; effect on DNMT1 protein level ([2]; 72 hour exposure at low non-toxic doses, FIG. 1A): capable of reducing DNMT1; effect on DNMT1 protein level ([2]; 96 h at the 1 and 3 μM doses, FIG. 1D): complete depletion of DNMT1; radioactivity recovered as water in the medium, T-dUrd in the medium, or T-dUMP in the acid-soluble pool [8]: none; IC50 ([9]; Homo sapiens, CCRF-CEM): 2200 nM
–	Nc1ccn([C@@H]2O[C@H](CO)[C@@H](O)[C@@H]2O)c(=O)n1 [araC, arabinofuranosylcytosine, reference compound]	did not deplete DNMT1	–	much less	–	–	IC50 [9]: 6 nM
–	Nc1ccn([C@H]2C[C@H](O)[C@@H](CO)O2)c(=O)n1 [dCyd, 2′-deoxycytidine, reference compound]	–	–	–	3% of total	38% of total	–
